Measured values reported in patent US20240277730A1, “SUPPRESSION OF COVID-19 REPLICATION BY COVID-19 ENTRY INHIBITORS” (Board of Regents of the University of Nebraska, priority 2021, published 2024).
Several values for one entry are separate records, joined by “and”; a condition that tells them apart may be missing. Equal entries are not always repeated. Entries after “also recorded” stand apart in the source; their conditions may differ.

Legend:
[1] = target: ACE2: SARS-COV-2 Spike RBD (Homo sapiens, UniProt Q9BYF1); assay: ACE2: SARS-COV-2 Spike RBD inhibitor screening assay (ELISA kit); set-up: species or system SARS-COV-2 / human; details: tested 0.25 to 5 μM in triplicate; read-out: IC50, inhibition of binding of SARS-COV-2 Spike RBD to ACE2
[2] = MTT cell viability assay, HEK293T-hACE2; type: cell-based; details: human, HEK293T-hACE2 cells
Procedure: (§1) The MTT cell viability assay of the preferred embodiment utilized HEK-293T-hACE2. UNCN1T. Vero-STAT1 knockout, and Calu-3 cells seeded at the density of 20,000 cells/well in a 96-well plate containing 100 μl complete media specific for each cell type. Cells were incubated for 12 h at 37° C., in a humidified 5% CO2 incubator for adherence. After 12-h incubation, the media was replaced with fresh media, and HEK-293T-hACE2 cells were treated with the five compounds at concentrations ranging between 0.001 to 100 μM. The Calu-3. […] Untreated cells were considered a negative control, and DMSO treated cells were considered vehicle controls. After the treatment, cells were incubated at 37° C., in humidified 5% CO2 incubator. Seventy-two hour posttreatment. 20 μl of MTT substrate (5 mg/ml) was added to each well and incubated for 4 additional hours at 37° C., in the dark. Then the culture media was carefully removed, and blue formazan crystals were dissolved in 200 μl of DMSO, and the purple color was read at 595 nm with a reference filter of 620 nm.

SARS-COV-2 [3] = assay: microbe, parasite or virus in culture; type: cell-based; details: read-out: IC50, inhibition of SARS-COV-2 replication
[4] = test system: pseudotyped lentiviral particles expressing Spike glycoprotein of SARS-COV-2; assay: microbe, parasite or virus in culture; type: cell-based
in vitro = type: cell-based; details: African green monkey, Vero-STAT1 knockout cells, MTT
Procedure: as §1

SARS-COV-2 [5] = assay: antiviral activity against live SARS-COV-2 in UNCN1T cells (RT-qPCR); type: cell-based; details: read-out: IC50, inhibition of SARS-COV-2 replication
SARS-COV-2 [6] = type: cell-based
[7] = MTT cell viability assay, UNCN1T; type: cell-based; details: human, UNCN1T cells
Procedure: as §1

[8] = MTT cell viability assay, Calu-3; type: cell-based; details: human, Calu-3 cells
Procedure: as §1

SARS-COV-2 [9] = type: cell-based; remark: listed apart in the source
Hu-1 S-RBD = Hu-1 S-RBD (Severe acute respiratory syndrome coronavirus 2, UniProt P0DTC2); assay: microscale thermophoresis (MST), S-RBD alone; type: binding, SARS-COV-2
[10] = Severe acute respiratory syndrome coronavirus 2

Chain of ACE2: SARS-COV-2 Spike RBD (Q9BYF1 18-740): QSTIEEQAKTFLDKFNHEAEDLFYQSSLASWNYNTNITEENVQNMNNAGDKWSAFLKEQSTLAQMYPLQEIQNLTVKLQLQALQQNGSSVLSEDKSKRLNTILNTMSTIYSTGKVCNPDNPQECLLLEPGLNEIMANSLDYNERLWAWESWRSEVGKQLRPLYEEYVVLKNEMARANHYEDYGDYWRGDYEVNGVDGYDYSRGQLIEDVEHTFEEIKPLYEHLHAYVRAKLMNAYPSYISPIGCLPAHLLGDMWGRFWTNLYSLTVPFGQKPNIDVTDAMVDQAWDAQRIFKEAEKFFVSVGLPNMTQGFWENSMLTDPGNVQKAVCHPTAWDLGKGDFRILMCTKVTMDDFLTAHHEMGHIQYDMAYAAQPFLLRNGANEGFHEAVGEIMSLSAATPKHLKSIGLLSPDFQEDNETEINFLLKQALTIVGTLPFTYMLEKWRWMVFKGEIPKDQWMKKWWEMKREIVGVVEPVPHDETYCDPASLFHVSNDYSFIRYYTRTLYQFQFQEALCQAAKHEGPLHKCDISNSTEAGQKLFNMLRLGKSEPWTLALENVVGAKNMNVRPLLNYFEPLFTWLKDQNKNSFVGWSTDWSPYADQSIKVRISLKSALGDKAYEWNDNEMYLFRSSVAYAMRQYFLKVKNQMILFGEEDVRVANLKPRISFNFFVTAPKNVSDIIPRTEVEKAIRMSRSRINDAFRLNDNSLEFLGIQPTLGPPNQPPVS

Compound	IC50 [1]	CC50 at 72 h [2]	pseudotype viral entry inhibition [4]	CC50 at 72 h (in vitro)	SARS-COV-2 infection compared with vehicle controls (SARS-COV-2 [6])	reduction in SARS-COV-2 infectivity (SARS-COV-2 [6])	CC50 at 72 h [7]	CC50 at 72 h [8]	other results
CN(C)/C=C1\N=C(c2cccnc2Oc2ccc(Cl)cc2)OC1=O [formula (VII), (Z)-2-(2-(4-chlorophenoxy)-pyridin-3-yl)-4-((dimethyl-amino)methylene)oxazol-5(4H)-one]	> 5 µM	> 100 µM							
CN1C(=O)c2ccccc2[S+]([O-])c2cc([N+](=O)[O-])ccc2S1(=O)=O (stereo not shown) [formula (Ia), 6-methyl-2-nitrodibenzo[d,g]-[1,6,2]dithiazocin-7(6H)-one 5,5, 12-trioxide]	< 0.25 µM and ≥ 0.25 µM	> 100 µM	low level of viral entry inhibition	6.21 µM	no significant difference	~40%	> 100 µM	> 100 µM	IC50 (SARS-COV-2 [3]; [10]): 5.35 µM; IC50 (SARS-COV-2 [3]): 2.94 µM; IC50 (SARS-COV-2 [5]; [10]): 0.67 µM; IC50 (SARS-COV-2 [5]): 1.16 µM
CCC(CC)COC(=O)[C@H](C)N[P@](=O)(OC[C@H]1O[C@@](C#N)(c2ccc3c(N)ncnn23)[C@H](O)[C@@H]1O)Oc1ccccc1 [RDV, remdesivir]									reduction in dosages in RDV/formula (IIa) combination (SARS-COV-2 [9]): ≥ 2.3 fold
CCn1c(SCC(=O)N2CCCc3ccccc32)nnc1-c1cccs1 [formula (V), 1-(3,4-dihydroquinolin-1(2H)-yl)-2-((4-ethyl-5-(thiophen-2-yl)-4H-1,2,4-triazol-3-yl)lhio)elhanone]	1.91 µM	> 100 µM							
OC(CNCCNc1ncccc1C(F)(F)F)Cn1ccc2ccccc21 (stereo not shown) [formula (VI), 1-(1H-indol-1-yl)-3-((2-((3-(trifluoromethyl)pyridin-2-yl)amino)ethyl)amino)-propan-2-ol]	> 5 µM	> 100 µM							
O=C1Nc2cc(C(F)(F)F)ccc2Oc2ccsc21 [formula (IIa), 7-(trifluoromethyl)benzo[b]-thieno[2,3-f][1,4]oxazepin-10(9H)-one]		> 100 µM	significant and robust viral entry inhibition	7.13 µM	no significant difference	~40%	> 100 µM	> 100 µM	IC50 ([4]; Severe acute respiratory syndrome coronavirus 2, 48 h, read-out: IC50, inhibition of entry of pseudotyped lentiviral particles): 0.84 µM; binding to S-RBD alone (Hu-1 S-RBD): does not binding; also recorded: does not bind
